Reference: ChEMBL document CHEMBL3994677, “Discovery of GSK2193874: An Orally Active, Potent, and Selective Blocker of Transient Receptor Potential Vanilloid 4” (ACS Med Chem Lett, 2017)

What was measured:
[1] = target: T1, Transient receptor potential cation channel subfamily V member 4 (Homo sapiens, UniProt Q9HBA0); test: Antagonist activity at human TRPV4 expressed in HEK293 cells assessed as inhibition of GSK634775A-induced calcium influx preincubated for 10 mins followed by GSK634775A addition by […] dye based FLIPR assay; format: cell-based
[2] = target: T2, Transient receptor potential cation channel subfamily V member 4 (Rattus norvegicus, UniProt Q9ERZ8); test: Antagonist activity at rat TRPV4 expressed in HEK293 cells assessed as inhibition of GSK634775A-induced calcium influx preincubated for 10 mins followed by GSK634775A addition by […] dye based FLIPR assay; format: cell-based
[3] = target: T3, Voltage-dependent L-type calcium channel subunit alpha-1C (Cavia porcellus, UniProt O35505); test: Inhibition of Cav1.2 in guinea pig ventricular myocytes assessed as decrease in current amplitude at 0.1 Hz by patch clamp method; format: cell-based
[4] = target: T3, Voltage-dependent L-type calcium channel subunit alpha-1C; test: Inhibition of Cav1.2 in guinea pig ventricular myocytes assessed as decrease in current amplitude at 2 Hz by patch clamp method; format: cell-based
[5] = target: Nuclear receptor subfamily 1 group I member 2 (Homo sapiens, UniProt O75469); test: Activation of PXR (unknown origin); format: ADME
[6] = Clearance in iv dosed rat; format: ADME, organism-based; conditions: in vivo
[7] = Half life in po dosed rat; format: ADME, organism-based; conditions: in vivo
[8] = Oral bioavailability in rat; format: ADME, organism-based; conditions: in vivo
[9] = Clearance in iv dosed dog; format: ADME, organism-based, Canis lupus familiaris; conditions: in vivo
[10] = Half life in po dosed dog; format: ADME, organism-based, Canis lupus familiaris; conditions: in vivo
[11] = Oral bioavailability in dog; format: ADME, organism-based, Canis lupus familiaris; conditions: in vivo
[12] = target: Transient receptor potential cation channel subfamily V member 1 (Homo sapiens, UniProt Q8NER1); test: Inhibition of TRPV1 (unknown origin)
[13] = target: Transient receptor potential cation channel subfamily A member 1 (Homo sapiens, UniProt O75762); test: Inhibition of TRPA1 (unknown origin)
[14] = target: Short transient receptor potential channel 3 (Homo sapiens, UniProt Q13507); test: Inhibition of TRPC3 (unknown origin)
[15] = target: Short transient receptor potential channel 6 (Homo sapiens, UniProt Q9Y210); test: Inhibition of TRPC6 (unknown origin)
[16] = target: Transient receptor potential cation channel subfamily M member 8 (Homo sapiens, UniProt Q7Z2W7); test: Inhibition of TRPM8 (unknown origin)
[17] = target: T2, Transient receptor potential cation channel subfamily V member 4; test: Antagonist activity at rat TRPV4 expressed in HEK293 cells assessed as inhibition of 4alpha-PDD-induced intracellular calcium after 10 mins in presence of 45Ca2+ by microbeta liquid scintillation counting method; format: cell-based
[18] = target: T4, Transient receptor potential cation channel subfamily V member 4 (Mus musculus, UniProt Q9EPK8); test: Antagonist activity at mouse TRPV4 expressed in HEK293 cells assessed as inhibition of 4alpha-PDD-induced intracellular calcium after 10 mins in presence of 45Ca2+ by microbeta liquid scintillation counting method; format: cell-based
[19] = target: T2, Transient receptor potential cation channel subfamily V member 4; test: Antagonist activity at rat TRPV4 expressed in HEK293 cells assessed as inhibition of 4alpha-PDD-induced current at holding potential of -40 mV by Whole cell patch-clamp method; format: cell-based
[20] = target: T4, Transient receptor potential cation channel subfamily V member 4; test: Antagonist activity at mouse TRPV4 expressed in HEK293 cells assessed as inhibition of 4alpha-PDD-induced current at holding potential of -40 mV by Whole cell patch-clamp method; format: cell-based
[21] = target: T1, Transient receptor potential cation channel subfamily V member 4
Description: Antagonist activity at human TRPV4 expressed in HEK293 cells assessed as inhibition of 4alpha-PDD-induced current at holding potential of -40 mV by Whole cell patch-clamp method

T2 sequence (Q9ERZ8 whole entry): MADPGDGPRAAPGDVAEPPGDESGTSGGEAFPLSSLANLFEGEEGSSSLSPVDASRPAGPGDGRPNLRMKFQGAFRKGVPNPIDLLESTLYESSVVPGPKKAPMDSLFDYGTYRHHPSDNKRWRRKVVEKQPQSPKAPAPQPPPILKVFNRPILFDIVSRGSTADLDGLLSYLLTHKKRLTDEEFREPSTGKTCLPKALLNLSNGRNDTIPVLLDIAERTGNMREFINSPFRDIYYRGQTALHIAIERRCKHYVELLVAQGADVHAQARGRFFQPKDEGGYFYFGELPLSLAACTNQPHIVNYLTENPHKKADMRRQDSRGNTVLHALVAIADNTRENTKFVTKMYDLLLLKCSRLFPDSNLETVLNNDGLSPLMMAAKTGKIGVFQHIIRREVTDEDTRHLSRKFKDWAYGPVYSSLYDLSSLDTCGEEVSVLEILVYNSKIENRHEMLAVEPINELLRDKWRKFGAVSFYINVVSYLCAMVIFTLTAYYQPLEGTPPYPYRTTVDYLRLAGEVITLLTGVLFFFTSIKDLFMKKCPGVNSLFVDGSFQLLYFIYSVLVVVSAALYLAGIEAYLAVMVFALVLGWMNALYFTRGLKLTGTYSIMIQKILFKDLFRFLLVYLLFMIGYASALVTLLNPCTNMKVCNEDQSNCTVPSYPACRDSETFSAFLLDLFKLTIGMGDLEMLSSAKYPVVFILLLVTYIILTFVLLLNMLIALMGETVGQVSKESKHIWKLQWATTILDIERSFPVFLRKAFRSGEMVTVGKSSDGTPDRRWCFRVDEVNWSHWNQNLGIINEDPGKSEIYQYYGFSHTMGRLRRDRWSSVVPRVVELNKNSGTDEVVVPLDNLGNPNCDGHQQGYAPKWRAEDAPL
T3 sequence (O35505 whole entry): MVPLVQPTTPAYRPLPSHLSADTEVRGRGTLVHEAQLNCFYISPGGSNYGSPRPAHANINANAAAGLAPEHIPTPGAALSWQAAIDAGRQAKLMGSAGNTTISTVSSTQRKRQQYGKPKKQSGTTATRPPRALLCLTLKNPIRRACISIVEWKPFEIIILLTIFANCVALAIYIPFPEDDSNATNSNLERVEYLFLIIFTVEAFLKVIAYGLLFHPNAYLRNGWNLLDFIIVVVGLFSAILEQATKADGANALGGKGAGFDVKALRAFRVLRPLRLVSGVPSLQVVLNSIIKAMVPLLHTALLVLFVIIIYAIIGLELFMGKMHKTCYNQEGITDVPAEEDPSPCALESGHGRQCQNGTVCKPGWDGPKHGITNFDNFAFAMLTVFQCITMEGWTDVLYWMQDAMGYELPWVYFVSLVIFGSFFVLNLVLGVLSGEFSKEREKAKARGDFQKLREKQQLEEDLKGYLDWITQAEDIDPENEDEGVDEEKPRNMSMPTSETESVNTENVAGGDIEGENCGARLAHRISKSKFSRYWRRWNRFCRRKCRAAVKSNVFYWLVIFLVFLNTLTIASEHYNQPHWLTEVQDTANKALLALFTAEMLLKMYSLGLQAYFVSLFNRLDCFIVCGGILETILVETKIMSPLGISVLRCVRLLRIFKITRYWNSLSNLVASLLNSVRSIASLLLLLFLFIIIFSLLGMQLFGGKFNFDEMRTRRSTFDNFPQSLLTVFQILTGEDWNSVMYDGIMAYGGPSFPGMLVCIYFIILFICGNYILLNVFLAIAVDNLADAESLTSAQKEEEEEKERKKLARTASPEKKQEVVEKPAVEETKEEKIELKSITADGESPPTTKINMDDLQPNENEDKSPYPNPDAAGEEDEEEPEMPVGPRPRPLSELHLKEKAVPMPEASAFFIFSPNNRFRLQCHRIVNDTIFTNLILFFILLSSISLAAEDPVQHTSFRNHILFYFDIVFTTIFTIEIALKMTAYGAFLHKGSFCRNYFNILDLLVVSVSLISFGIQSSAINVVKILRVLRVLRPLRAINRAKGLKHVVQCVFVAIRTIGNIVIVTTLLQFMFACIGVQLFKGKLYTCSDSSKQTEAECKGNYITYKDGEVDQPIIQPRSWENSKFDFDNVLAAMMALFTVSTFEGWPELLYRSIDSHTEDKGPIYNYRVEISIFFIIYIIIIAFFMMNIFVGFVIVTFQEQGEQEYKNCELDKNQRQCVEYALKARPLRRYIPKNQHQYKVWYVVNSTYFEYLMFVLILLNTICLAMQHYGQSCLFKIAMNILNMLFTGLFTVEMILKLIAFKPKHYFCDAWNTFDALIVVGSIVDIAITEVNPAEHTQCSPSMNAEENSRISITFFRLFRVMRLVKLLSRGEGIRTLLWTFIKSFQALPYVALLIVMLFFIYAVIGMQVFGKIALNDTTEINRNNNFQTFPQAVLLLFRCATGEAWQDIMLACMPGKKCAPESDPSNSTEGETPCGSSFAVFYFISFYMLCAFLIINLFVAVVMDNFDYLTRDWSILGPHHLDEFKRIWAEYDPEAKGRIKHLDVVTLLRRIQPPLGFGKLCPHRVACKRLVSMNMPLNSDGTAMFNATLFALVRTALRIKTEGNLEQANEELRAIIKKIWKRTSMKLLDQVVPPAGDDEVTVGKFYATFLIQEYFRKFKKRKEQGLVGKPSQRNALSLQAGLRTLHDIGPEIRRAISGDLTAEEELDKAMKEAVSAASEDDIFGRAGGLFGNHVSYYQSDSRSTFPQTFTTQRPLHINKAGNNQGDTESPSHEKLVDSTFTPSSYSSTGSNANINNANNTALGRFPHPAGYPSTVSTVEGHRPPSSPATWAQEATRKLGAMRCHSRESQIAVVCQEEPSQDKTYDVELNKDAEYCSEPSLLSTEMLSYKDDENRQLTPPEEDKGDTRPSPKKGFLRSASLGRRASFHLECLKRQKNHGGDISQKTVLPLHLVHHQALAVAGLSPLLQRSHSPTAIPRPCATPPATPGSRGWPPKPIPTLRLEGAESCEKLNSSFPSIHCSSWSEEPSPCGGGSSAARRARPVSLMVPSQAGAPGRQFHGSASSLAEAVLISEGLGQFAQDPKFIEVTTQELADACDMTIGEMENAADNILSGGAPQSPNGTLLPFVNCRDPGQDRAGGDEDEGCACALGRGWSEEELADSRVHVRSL
T1 sequence (Q9HBA0 whole entry): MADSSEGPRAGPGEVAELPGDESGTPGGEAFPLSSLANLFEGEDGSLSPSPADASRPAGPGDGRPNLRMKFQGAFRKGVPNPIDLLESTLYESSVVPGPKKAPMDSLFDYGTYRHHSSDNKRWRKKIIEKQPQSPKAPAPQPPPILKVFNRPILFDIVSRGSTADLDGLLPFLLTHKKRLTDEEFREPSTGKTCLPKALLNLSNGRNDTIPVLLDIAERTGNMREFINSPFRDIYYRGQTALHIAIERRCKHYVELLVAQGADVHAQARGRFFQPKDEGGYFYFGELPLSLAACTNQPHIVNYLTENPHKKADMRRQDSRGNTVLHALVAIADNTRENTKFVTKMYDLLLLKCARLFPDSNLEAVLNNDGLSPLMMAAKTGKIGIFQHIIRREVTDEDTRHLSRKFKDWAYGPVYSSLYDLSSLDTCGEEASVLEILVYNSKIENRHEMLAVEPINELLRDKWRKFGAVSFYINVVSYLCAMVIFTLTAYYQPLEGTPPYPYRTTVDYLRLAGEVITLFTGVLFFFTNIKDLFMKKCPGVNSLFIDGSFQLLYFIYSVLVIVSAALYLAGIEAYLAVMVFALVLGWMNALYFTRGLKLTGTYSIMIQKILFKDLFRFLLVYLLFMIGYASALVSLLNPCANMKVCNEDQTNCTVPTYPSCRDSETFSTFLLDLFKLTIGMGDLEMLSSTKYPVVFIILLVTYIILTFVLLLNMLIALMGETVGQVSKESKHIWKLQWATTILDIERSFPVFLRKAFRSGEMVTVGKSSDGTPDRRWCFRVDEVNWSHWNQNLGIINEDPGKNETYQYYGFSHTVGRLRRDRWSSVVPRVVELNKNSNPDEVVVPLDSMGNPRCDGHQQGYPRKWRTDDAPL
T4 sequence (Q9EPK8 whole entry): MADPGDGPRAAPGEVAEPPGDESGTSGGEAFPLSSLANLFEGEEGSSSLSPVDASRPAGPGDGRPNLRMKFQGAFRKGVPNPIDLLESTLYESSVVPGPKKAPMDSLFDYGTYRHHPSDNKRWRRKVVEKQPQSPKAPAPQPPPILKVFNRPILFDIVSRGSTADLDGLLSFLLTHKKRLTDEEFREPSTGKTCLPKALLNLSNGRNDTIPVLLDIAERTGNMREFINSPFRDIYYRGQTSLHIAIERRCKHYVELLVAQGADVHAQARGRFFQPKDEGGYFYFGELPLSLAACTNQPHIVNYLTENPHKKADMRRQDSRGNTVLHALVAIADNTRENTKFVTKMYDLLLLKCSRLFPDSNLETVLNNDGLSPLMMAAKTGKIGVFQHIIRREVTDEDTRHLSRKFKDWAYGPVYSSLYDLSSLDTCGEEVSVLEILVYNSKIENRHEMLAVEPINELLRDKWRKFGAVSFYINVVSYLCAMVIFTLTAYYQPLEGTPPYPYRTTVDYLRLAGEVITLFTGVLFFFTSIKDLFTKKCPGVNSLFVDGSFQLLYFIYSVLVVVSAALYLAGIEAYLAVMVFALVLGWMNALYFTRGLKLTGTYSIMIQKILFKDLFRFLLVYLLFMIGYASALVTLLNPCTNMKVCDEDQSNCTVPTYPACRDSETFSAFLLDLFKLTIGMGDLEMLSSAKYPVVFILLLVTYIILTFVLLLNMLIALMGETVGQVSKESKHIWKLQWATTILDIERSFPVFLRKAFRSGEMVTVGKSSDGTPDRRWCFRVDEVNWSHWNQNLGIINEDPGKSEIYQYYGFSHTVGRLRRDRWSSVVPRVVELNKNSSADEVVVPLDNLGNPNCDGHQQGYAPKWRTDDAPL

| Structure (SMILES) | IC50 [1] [nM] | IC50 [2] [nM] | also measured |
| --- | --- | --- | --- |
| C[C@H](NC(=O)c1c(CN2CCC(N3CCCCC3)CC2)c(-c2ccc(Cl)cc2)nc2ccccc12)c1ccccc1 | 320 | 16 |  |
| C[C@@H](NC(=O)c1c(CN2CCC(N3CCCCC3)CC2)c(-c2ccccc2)nc2ccccc12)c1ccccc1 | 2000 | 630 |  |
| COc1ccc2c(C(=O)NC3(c4ccccc4)CC3)c(CN3CCC(N4CCCCC4)CC3)c(-c3cccc(C(F)(F)F)c3)nc2c1 | 250 | 2.5 |  |
| O=C(NCc1ccccc1)c1c(CN2CCC(N3CCCCC3)CC2)c(-c2cccc(C(F)(F)F)c2)nc2ccccc12 | 500 | 50 |  |
| CCOc1ccc2c(C(=O)NC3(c4ccccc4)CC3)c(CN3CCC(N4CCCCC4)CC3)c(-c3cccc(C(F)(F)F)c3)nc2c1 | 80 | 1.6 |  |
| COc1ccc(-c2nc3ccccc3c(C(=O)N[C@@H](C)c3ccccc3)c2CN2CCC(N3CCCCC3)CC2)cc1 | 5010 | 320 |  |
| O=C(NC1(c2ccccc2)CC1)c1c(CN2CCC(N3CCCCC3)CC2)c(-c2cccc(C(F)(F)F)c2)nc2cc(Br)ccc12 | 40 | 2 | IC30 [3]: 10500 nM; IC30 [4]: 10500 nM; Activity ([5]; human): Not Active; clearance [6]: 7.3 mL/min/kg; half-life [7]: 10 h; bioavailability [8]: 31%; clearance [9]: 6.9 mL/min/kg; half-life [10]: 31 h; bioavailability [11]: 53%; IC50 [12]: > 25000 nM; IC50 [13]: > 25000 nM; IC50 [14]: > 25000 nM; IC50 [15]: > 25000 nM; IC50 [16]: > 25000 nM |
| C[C@H](NC(=O)c1c(CN2CCC(N3CCNCC3)CC2)c(-c2cccc(C(F)(F)F)c2)nc2ccccc12)c1ccccc1 | 3160 | 790 |  |
| C[C@H](NC(=O)c1c(CN2CCCCC2)c(-c2cccc(C(F)(F)F)c2)nc2ccccc12)c1ccccc1 | > 25000 | > 25000 |  |
| O=C(NC1(c2ccccc2)CC1)c1c(CN2CCC(N3CCCCC3)CC2)c(-c2cccc(C(F)(F)F)c2)nc2ccccc12 | 50 | 2.5 |  |
| CC(C)[C@H](NC(=O)c1c(CN2CCC(N3CCCCC3)CC2)c(-c2cccc(C(F)(F)F)c2)nc2ccccc12)c1ccccc1 | 130 | 25 |  |
| Cc1cccc(-c2nc3ccccc3c(C(=O)N[C@@H](C)c3ccccc3)c2CN2CCC(N3CCCCC3)CC2)c1 | 500 | 13 |  |
| CC(C)NCCN(C(C)C)S(=O)(=O)c1ccc(Cl)cc1Cl |  |  | IC50 [17]: 3200 nM; IC50 [18]: 5900 nM |
| O=C(N[C@H](c1ccccc1)C(F)(F)F)c1c(CN2CCC(N3CCCCC3)CC2)c(-c2cccc(C(F)(F)F)c2)nc2cc(Br)ccc12 | 60 | 3.2 |  |
| CCOc1ccc2c(C(=O)N[C@H](c3ccccc3)C(F)(F)F)c(CN3CCC(N4CCCCC4)CC3)c(-c3cccc(C(F)(F)F)c3)nc2c1 | 10 | 3.2 | IC30 [3]: 10000 nM; IC30 [4]: 12000 nM; EC50 [5]: 1300 nM |
| Cc1c(C(=O)Nc2cccc(C(F)(F)F)c2)cc(-c2ccccc2)n1CCCN1CCOCC1 |  |  | IC50 [19]: 133 nM; IC50 [20]: 17 nM; IC50 [21]: 48 nM |
